In patent US3945994A, “Novel acid compounds” (Gist-Brocades N.V., priority 1973, dated 1976):
≈ marks a conversion by molar mass, not a printed value.

Key:
Format in all cases: cell-based
[1] = test system: Staphylococcus aureus A 321; conditions: A321, agar serial dilution, 24 hours at 37°C
[2] = test system: Staphylococcus aureus A 2000; conditions: A2000, agar serial dilution, 24 hours at 37°C
[3] = test system: Klebsiella pneumoniae A 809; conditions: A809, agar serial dilution, 24 hours at 37°C
[4] = test system: Proteus rettgeri A 821; conditions: Providencia rettgeri, A821; agar serial dilution, 24 hours at 37°C
[5] = test system: Pseudomonas aeruginosa Wyeth A 1058; conditions: WYETHA1058, agar serial dilution, 24 hours at 37°C
[6] = test system: Pseudomonas aeruginosa 2396; conditions: agar serial dilution, 24 hours at 37°C
[7] = test system: Salmonella typhimurium R 127; conditions: Salmonella enterica, agar serial dilution, 24 hours at 37°C
[8] = test system: Salmonella dublin P 43; conditions: Salmonella enterica, P43; agar serial dilution, 24 hours at 37°C
[9] = test system: Escherichia coli U 20; conditions: U20, agar serial dilution, 24 hours at 37°C
[10] = test system: Diplococcus pneumoniae L 54; conditions: Streptococcus pneumoniae, L54; agar serial dilution, 24 hours at 37°C
[11] = test system: Pasteurella multocida A 723; conditions: A723, agar serial dilution, 24 hours at 37°C
[12] = test system: Proteus mirabilis H 3; conditions: H3, agar serial dilution, 24 hours at 37°C
[13] = test system: Streptococcus faecalis L 80; conditions: Enterococcus faecalis, L80; agar serial dilution, 24 hours at 37°C
[14] = test system: Streptococcus haemolyticus A 266; conditions: A266, agar serial dilution, 24 hours at 37°C
[15] = test system: Bacillus subtilis ATCC 6633; conditions: ATCC6633, agar serial dilution, 24 hours at 37°C
[16] = test system: Proteus morganii 2241; conditions: Morganella morganii, agar serial dilution, 24 hours at 37°C
[17] = test system: Staphylococcus aureus A 2001; conditions: A2001, agar serial dilution, 24 hours at 37°C
[18] = test system: Haemophilus influenzae A 1030; conditions: A1030, agar serial dilution, 24 hours at 37°C
[19] = test system: Staphylococcus aureus A 355'; conditions: agar serial dilution, 24 hours at 37°C
[20] = test system: Pseudomonas aeruginosa H 10; conditions: H10, agar serial dilution, 24 hours at 37°C
[21] = test system: Proteus mirabilis A 1200; conditions: A1200, agar serial dilution, 24 hours at 37°C

MIC [1]: 1.5 µg/mL (≈ 2.69 µM)
MIC [2]: 12.5 µg/mL (≈ 22.4 µM)
MIC [3]: 100 µg/mL (≈ 179 µM)
MIC [4]: 1 µg/mL (≈ 1.79 µM)
MIC [5]: 100 µg/mL (≈ 179 µM)
MIC [6]: 50 µg/mL (≈ 89.5 µM)
MIC [7]: 50 µg/mL (≈ 89.5 µM)
MIC [8]: 12.5 µg/mL (≈ 22.4 µM)
MIC [9]: 12.5 µg/mL (≈ 22.4 µM)
MIC [10]: 9 µg/mL (≈ 16.1 µM)
MIC [11]: 0.25 µg/mL (≈ 0.448 µM)
MIC [12]: 3 µg/mL (≈ 5.37 µM)
MIC [13]: 25 µg/mL (≈ 44.8 µM)
MIC [15]: 1 µg/mL (≈ 1.79 µM)
MIC [16]: 6 µg/mL (≈ 10.7 µM)
MIC [17]: 6 µg/mL (≈ 10.7 µM)
MIC [18]: 1.5 µg/mL (≈ 2.69 µM)
MIC [19]: 12.5 µg/mL (≈ 22.4 µM)
MIC [20]: > 100 µg/mL
MIC [21]: 1.5 µg/mL (≈ 2.69 µM)
Compound: CCOC(=O)NNS(=O)(=O)NC(=O)N[C@@H](C(=O)N[C@@H]1C(=O)N2[C@@H]1SC(C)(C)[C@@H]2C(=O)O)c1ccccc1 [XV, D-6-[α-{3-(ethoxycarbonylhydrazinosulfonyl)-ureido}benzylcarbonamido]-penicillanic acid]
MIC [14]: 0.5 µg/mL (≈ 0.895 µM)
